“And” between values parts separate entries of the source, which are not always exact repeats. Identical values can stand only once.
Settings: for vapor or sublimation pressure: Closed cell (Static) method

COC(F)(F)F [trifluoromethoxymethane]
Gas, Burnett expansion method
Settings	mass density [kg/m3]
320 K, 421.5 kPa	17.3
320 K, 570.4 kPa	24.28
320 K, 604.9 kPa	25.98
320 K, 802.9 kPa	36.45
320 K, 847.1 kPa	38.98
330 K, 137.5 kPa	5.133
330 K, 188.9 kPa	7.099
330 K, 203.7 kPa	7.696
330 K, 280.6 kPa	10.75
330 K, 300.2 kPa	11.55
330 K, 410.7 kPa	16.13
330 K, 437.5 kPa	17.29
330 K, 594.3 kPa	24.27
330 K, 630.6 kPa	25.96
330 K, 841.9 kPa	36.48
330 K, 889 kPa	38.98
340 K, 141.7 kPa	5.126
340 K, 195.8 kPa	7.136
340 K, 210.4 kPa	7.694
340 K, 310.5 kPa	11.54
340 K, 425.6 kPa	16.13
340 K, 453.5 kPa	17.28
340 K, 655.6 kPa	25.94
340 K, 879.5 kPa	36.45
340 K, 929.4 kPa	38.95
340 K, 1216.9 kPa	54.78
340 K, 1278.5 kPa	58.56
340 K, 1605.8 kPa	82.06
350 K, 146.2 kPa	5.127
350 K, 202.9 kPa	7.174
350 K, 217 kPa	7.688
350 K, 299.5 kPa	10.74
350 K, 320.6 kPa	11.53
350 K, 469.2 kPa	17.27
350 K, 640.8 kPa	24.25
350 K, 680.3 kPa	25.92
350 K, 969 kPa	38.92
350 K, 1277.1 kPa	54.75
350 K, 1343.5 kPa	58.5
350 K, 1709.6 kPa	82.31
350 K, 1782.8 kPa	87.93
360 K, 150.4 kPa	5.122
360 K, 208.1 kPa	7.139
360 K, 223.5 kPa	7.683
360 K, 330.6 kPa	11.52
360 K, 455 kPa	16.13
360 K, 484.7 kPa	17.25
360 K, 704.6 kPa	25.9
360 K, 952.6 kPa	36.41
360 K, 1007.9 kPa	38.88
360 K, 1335.8 kPa	54.71
360 K, 1406.7 kPa	58.43
360 K, 1807.1 kPa	82.26
360 K, 1888.4 kPa	87.85
360 K, 2309 kPa	123.6
360 K, 2385.4 kPa	132
370 K, 154.7 kPa	5.117
370 K, 215.6 kPa	7.182
370 K, 230 kPa	7.677
370 K, 318.3 kPa	10.73
370 K, 340.6 kPa	11.52
370 K, 500.1 kPa	17.24
370 K, 686.1 kPa	24.23
370 K, 728.8 kPa	25.88
370 K, 1046.2 kPa	38.85
370 K, 1393.4 kPa	54.67
370 K, 1468.6 kPa	58.37
370 K, 1901.8 kPa	82.19
370 K, 1990.6 kPa	87.72
370 K, 2469.3 kPa	123.6
370 K, 2559 kPa	132
370 K, 2970.3 kPa	185.3
370 K, 3031.6 kPa	197.4
380 K, 147.8 kPa	4.751
380 K, 158.9 kPa	5.114
380 K, 220.5 kPa	7.14
380 K, 236.5 kPa	7.671
380 K, 327.6 kPa	10.73
380 K, 350.5 kPa	11.51
380 K, 483.9 kPa	16.12
380 K, 515.4 kPa	17.23
380 K, 708.4 kPa	24.22
380 K, 752.6 kPa	25.86
380 K, 1023.5 kPa	36.37
380 K, 1084 kPa	38.82
380 K, 1450 kPa	54.63
380 K, 1529.5 kPa	58.32
380 K, 1994.4 kPa	82.12
380 K, 2092.4 kPa	87.73
380 K, 2624.1 kPa	123.5
380 K, 2726.4 kPa	131.8
380 K, 3233.6 kPa	185.9
380 K, 3316.9 kPa	198.3
380 K, 3647 kPa	276.7
380 K, 3686.3 kPa	294.2
380 K, 3776.4 kPa	381.1
380 K, 3786.4 kPa	439.7

Settings	mass density [kg/m3]
320 K, 449.1 kPa, Gas	18.62
320 K, 634.7 kPa, Gas	27.54
320 K, 968.5 kPa, Gas	46.37
320 K, 1046.3 kPa, Liquid	1013.52
320 K, 1081.4 kPa, Liquid	1013.85
320 K, 1117.7 kPa, Liquid	1014.21
320 K, 1512.4 kPa, Liquid	1017.85
320 K, 1515.2 kPa, Liquid	1018.55
320 K, 2029.1 kPa, Liquid	1023.1
320 K, 2036.4 kPa, Liquid	1022.49
320 K, 2520.5 kPa, Liquid	1026.61
320 K, 2529.1 kPa, Liquid	1027.35
320 K, 3012.2 kPa, Liquid	1031.29
320 K, 3050.4 kPa, Liquid	1030.92
320 K, 3512.7 kPa, Liquid	1035.21
320 K, 3595.2 kPa, Liquid	1035.17
320 K, 4030.7 kPa, Liquid	1039.11
320 K, 4131.4 kPa, Liquid	1039.19
320 K, 4518.5 kPa, Liquid	1042.67
320 K, 4616.1 kPa, Liquid	1042.69
320 K, 5039.6 kPa, Liquid	1046.35
320 K, 5136.9 kPa, Liquid	1046.33
320 K, 5518 kPa, Liquid	1049.62
320 K, 5652.1 kPa, Liquid	1049.82
320 K, 6055.9 kPa, Liquid	1053.18
320 K, 6201.4 kPa, Liquid	1053.41
320 K, 6522.4 kPa, Liquid	1056.19
320 K, 6721.8 kPa, Liquid	1056.72
320 K, 6877.8 kPa, Liquid	1058.42
320 K, 7175.8 kPa, Liquid	1059.52
330 K, 72.1 kPa, Gas	2.7
330 K, 106.1 kPa, Gas	3.97
330 K, 155.7 kPa, Gas	5.88
330 K, 227.6 kPa, Gas	8.7
330 K, 330.5 kPa, Gas	12.87
330 K, 475.1 kPa, Gas	19.02
330 K, 674.2 kPa, Gas	28.13
330 K, 936.5 kPa, Gas	41.69
330 K, 1364.9 kPa, Liquid	972.53
330 K, 1414.6 kPa, Liquid	973.15
330 K, 1458.1 kPa, Liquid	973.66
330 K, 2087 kPa, Liquid	981.1
330 K, 2555.2 kPa, Liquid	986.24
330 K, 3114.9 kPa, Liquid	992.08
330 K, 3553.8 kPa, Liquid	996.38
330 K, 4105.6 kPa, Liquid	1001.58
330 K, 4643.4 kPa, Liquid	1006.39
330 K, 5117 kPa, Liquid	1010.47
330 K, 5639.1 kPa, Liquid	1014.76
330 K, 6168.6 kPa, Liquid	1018.96
330 K, 6739.6 kPa, Liquid	1023.31
330 K, 7155.4 kPa, Liquid	1026.38
340 K, 1691.6 kPa, Liquid	925.88
340 K, 1704.5 kPa, Liquid	926.14
340 K, 1776.3 kPa, Liquid	927.36
340 K, 2059.3 kPa, Liquid	932.03
340 K, 2582.2 kPa, Liquid	940.1
340 K, 3081.7 kPa, Liquid	947.17
340 K, 3596.1 kPa, Liquid	953.91
340 K, 4130.8 kPa, Liquid	960.48
340 K, 4614 kPa, Liquid	966.04
340 K, 5146.7 kPa, Liquid	971.84
340 K, 5642.7 kPa, Liquid	976.95
340 K, 6163.1 kPa, Liquid	982.05
340 K, 6711.6 kPa, Liquid	987.19
340 K, 7112.6 kPa, Liquid	990.78
350 K, 2091.1 kPa, Liquid	872.23
350 K, 2104.3 kPa, Liquid	872.59
350 K, 2141.2 kPa, Liquid	873.54
350 K, 2548.5 kPa, Liquid	883.49
350 K, 3078 kPa, Liquid	894.77
350 K, 3561.7 kPa, Liquid	903.94
350 K, 4061.4 kPa, Liquid	912.5
350 K, 4604.4 kPa, Liquid	920.96
350 K, 5110.9 kPa, Liquid	928.26
350 K, 5614.7 kPa, Liquid	935
350 K, 6145.6 kPa, Liquid	941.66
350 K, 6708.6 kPa, Liquid	948.27
350 K, 7180.7 kPa, Liquid	953.51
360 K, 2566.6 kPa, Liquid	806.04
360 K, 2595.3 kPa, Liquid	807.47
360 K, 2674 kPa, Liquid	811
360 K, 3046.9 kPa, Liquid	825.94
360 K, 3567.7 kPa, Liquid	842.69
360 K, 4099.1 kPa, Liquid	856.85
360 K, 4614.4 kPa, Liquid	868.64
360 K, 5110 kPa, Liquid	878.67
360 K, 5611.7 kPa, Liquid	887.84
360 K, 6201.7 kPa, Liquid	897.63
360 K, 6215.7 kPa, Liquid	897.87
360 K, 6705.8 kPa, Liquid	905.3
360 K, 7100.8 kPa, Liquid	910.94
370 K, 3130.2 kPa, Liquid	712.6
370 K, 3147.8 kPa, Liquid	715.08
370 K, 3586 kPa, Liquid	754.94
370 K, 4068.1 kPa, Liquid	781.44
370 K, 4642.5 kPa, Liquid	804.25
370 K, 5159.1 kPa, Liquid	820.53
370 K, 5641.4 kPa, Liquid	833.56
370 K, 6176.7 kPa, Liquid	846.09
370 K, 6712.7 kPa, Liquid	857.24
370 K, 7155.1 kPa, Liquid	865.58
380 K, 345.8 kPa, Gas	11.4
380 K, 411.6 kPa, Gas	13.64
380 K, 637.2 kPa, Gas	21.72
380 K, 1069 kPa, Gas	38.43
380 K, 1190.9 kPa, Gas	43.52
380 K, 1736.8 kPa, Gas	68.74
380 K, 2282.2 kPa, Gas	99.68
380 K, 2913 kPa, Gas	148.72
380 K, 3383.7 kPa, Gas	207.93
380 K, 3672.6 kPa, Gas	287.87
380 K, 3791.1 kPa, Gas	430.78
380 K, 3807.7 kPa, Liquid	489.63
380 K, 4003.4 kPa, Liquid	629
380 K, 4596.7 kPa, Liquid	707.34
380 K, 5159.5 kPa, Liquid	743.66
380 K, 5653.6 kPa, Liquid	766.09
380 K, 6175.8 kPa, Liquid	785.18
380 K, 6672.5 kPa, Liquid	800.32
380 K, 7138.9 kPa, Liquid	812.7

Liquid
Settings	mass density	vapor or sublimation pressure
320 K	1013.47 kg/m3 and 1014.09 kg/m3	1038.1 kPa and 1038.5 kPa and 1038.4 kPa
325 K	–	1175.7 kPa
330 K	972.09 kg/m3 and 973.36 kg/m3 and 973.37 kg/m3	1325.7 kPa and 1325.6 kPa
335 K	–	1489.7 kPa
340 K	925.57 kg/m3	1668.8 kPa and 1668.5 kPa and 1670.2 kPa
345 K	–	1863.6 kPa
350 K	871.95 kg/m3	2074.9 kPa and 2075 kPa and 2071.7 kPa
355 K	–	2304.3 kPa
360 K	805.64 kg/m3	2553.1 kPa and 2553.8 kPa and 2554.9 kPa
365 K	–	2823.3 kPa
370 K	711.78 kg/m3	3116.4 kPa and 3117.3 kPa and 3117.1 kPa
375 K	–	3435.7 kPa
